The values that follow come from ChEMBL document CHEMBL3351381, “Synthesis, structure-activity relationship studies, and antibacterial evaluation of 4-chromanones and chalcones, as well as olympicin A and derivatives” (J Med Chem, 2014).

Common to all, as to format: functional
Test [1] relates to Mycobacterium tuberculosis. As to the kind of experiment: Antimicrobial activity against Mycobacterium tuberculosis H37Rv by microbroth dilution method. (Broth dilution looks for growth in wells or tubes with falling amounts of substance.)
Test [2] has as its system Escherichia coli. As to the kind of experiment: Antimicrobial activity against tolC-deficient Escherichia coli by microbroth dilution method.
The test system of test [3] is Staphylococcus aureus. As to the kind of experiment: Antimicrobial activity against methicillin-resistant Staphylococcus aureus NRS 70 by microbroth dilution method.
The subject of a further test is Klebsiella pneumoniae. Description: Antimicrobial activity against Klebsiella pneumoniae ATCC 33495 at >200 ug/ml by microbroth dilution method.
The test system of another test is Pseudomonas aeruginosa. As to the kind of experiment: Antimicrobial activity against Pseudomonas aeruginosa PAO1 at >200 ug/ml by microbroth dilution method.
A further test relates to Enterococcus faecalis. Description: Antimicrobial activity against Enterococcus faecalis ATCC 33186 by microbroth dilution method.
The test system of test [4] is Staphylococcus aureus. Description: Antimicrobial activity against methicillin-sensitive Staphylococcus aureus ATCC 29213 by microbroth dilution method.
Test [5] deals with Escherichia coli. Description: Antimicrobial activity against Escherichia coli K-12 by microbroth dilution method.

Each structure is given as a SMILES string. Converted amounts (≈) assume the structure as drawn. Bounds are passed on as bounds.

In the case of `CCC(C)C(=O)c1c(O)cc(O)cc1OC/C=C(\C)CCC=C(C)C` (racemic), the MIC in test [1] is 200 µg/mL (≈ 577 µM); with Escherichia coli [2] it was more than 200 µg/mL; against Staphylococcus aureus [3], 3.13 µg/mL (≈ 9.03 µM); against Klebsiella pneumoniae, more than 200 µg/mL; against Pseudomonas aeruginosa, more than 200 µg/mL.
For the compound `CCCCCCC1CC(=O)c2c(OCOC)cc(OCOC)cc2O1` (stereo not drawn), the MIC in test [1] was 50 µg/mL (≈ 142 µM); with Enterococcus faecalis it was more than 200 µg/mL; in the test with Staphylococcus aureus [4], more than 200 µg/mL; against Escherichia coli [5], more than 200 µg/mL; in the test on Escherichia coli [2] it was 6.25 µg/mL (≈ 17.7 µM); against Staphylococcus aureus [3], more than 200 µg/mL. For the same compound, the MIC with Klebsiella pneumoniae and against Pseudomonas aeruginosa was more than 200 µg/mL in each case.
On to `CC(C)=CCCC(C)CC1CC(=O)c2cc(O)ccc2O1` (stereo not drawn), for which the minimal inhibitory concentration (MIC) in test [1] is 200 µg/mL (≈ 694 µM); in the test on Enterococcus faecalis, 6.25 µg/mL (≈ 21.7 µM); in the test on Staphylococcus aureus [4], 6.25 µg/mL (≈ 21.7 µM); against Escherichia coli [5], more than 200 µg/mL; with Escherichia coli [2] it was 3.13 µg/mL (≈ 10.9 µM); in the test on Staphylococcus aureus [3], 12.5 µg/mL (≈ 43.3 µM). The MIC against Klebsiella pneumoniae and against Pseudomonas aeruginosa was more than 200 µg/mL throughout.
As to `CCCC1CC(O)c2ccc(O)cc2O1` (stereo not drawn), the MIC in test [1] is 12.5 µg/mL (≈ 60 µM); with Enterococcus faecalis, 100 µg/mL (≈ 480 µM); against Staphylococcus aureus [4], 50 µg/mL (≈ 240 µM); against Escherichia coli [5], more than 200 µg/mL; in the test with Escherichia coli [2], 50 µg/mL (≈ 240 µM); in the test with Staphylococcus aureus [3], 50 µg/mL (≈ 240 µM). Also, the MIC against Klebsiella pneumoniae and against Pseudomonas aeruginosa was more than 200 µg/mL throughout.
Turning to `C=CCOc1ccccc1/C=C/C(=O)c1c(O)cc(O)cc1O`, the minimal inhibitory concentration (MIC) in test [1] was more than 200 µg/mL; against Enterococcus faecalis, 50 µg/mL (≈ 160 µM); against Staphylococcus aureus [4] it was more than 200 µg/mL; against Escherichia coli [5] it was more than 200 µg/mL; against Escherichia coli [2] it was 12.5 µg/mL (≈ 40 µM); against Staphylococcus aureus [3], 25 µg/mL (≈ 80 µM). For the same compound, the minimum inhibitory concentration (MIC) with Klebsiella pneumoniae and in the test on Pseudomonas aeruginosa was more than 200 µg/mL each time.
On to `NNC(=O)c1ccncc1` [ISONIAZID], for which it took 0.03 µg/mL (≈ 0.219 µM) to inhibit growth in test [1] (MIC).
Turning to `C=CCOc1cc(O)cc(O)c1C(=O)C(C)CC` (racemic), the minimal inhibitory concentration (MIC) is 100 µg/mL (≈ 400 µM) in test [1]; more than 200 µg/mL against Escherichia coli [5]; 3.13 µg/mL (≈ 12.5 µM) in the test on Escherichia coli [2]; 6.25 µg/mL (≈ 25 µM) with Staphylococcus aureus [3]; more than 200 µg/mL with Klebsiella pneumoniae; more than 200 µg/mL with Pseudomonas aeruginosa.
Take `CC1(C)S[C@@H]2[C@H](NC(=O)[C@H](N)c3ccccc3)C(=O)N2[C@H]1C(=O)O` [AMPICILLIN]: the minimum inhibitory concentration (MIC) is 0.78 µg/mL (≈ 2.23 µM) in the test on Enterococcus faecalis; 1.56 µg/mL (≈ 4.46 µM) with Staphylococcus aureus [4]; 3.13 µg/mL (≈ 8.96 µM) against Escherichia coli [5]; 1.56 µg/mL (≈ 4.46 µM) in the test on Escherichia coli [2]; 12.5 µg/mL (≈ 35.8 µM) against Staphylococcus aureus [3]; more than 200 µg/mL against Klebsiella pneumoniae. In the test with Pseudomonas aeruginosa, this compound gave a minimal inhibitory concentration (MIC) of more than 200 µg/mL.
Take `NC[C@H]1O[C@H](O[C@H]2[C@H](O)[C@@H](O[C@H]3O[C@H](CO)[C@@H](O)[C@H](N)[C@H]3O)[C@H](N)C[C@@H]2N)[C@H](O)[C@@H](O)[C@@H]1O` [KANAMYCIN]: the minimal inhibitory concentration (MIC) is 25 µg/mL (≈ 51.6 µM) against Enterococcus faecalis; 1.56 µg/mL (≈ 3.22 µM) in the test with Staphylococcus aureus [4]; 3.13 µg/mL (≈ 6.46 µM) with Escherichia coli [5]; less than 0.2 µg/mL against Escherichia coli [2]; 50 µg/mL (≈ 103 µM) with Staphylococcus aureus [3]; more than 200 µg/mL against Klebsiella pneumoniae. Also, the MIC against Pseudomonas aeruginosa was more than 200 µg/mL.
As to `C=CCOc1cc(O)cc(O)c1C(=O)[C@@H](C)CC`, the MIC against Enterococcus faecalis is 12.5 µg/mL (≈ 49.9 µM); in the test on Staphylococcus aureus [4], 12.5 µg/mL (≈ 49.9 µM); against Escherichia coli [2], 3.13 µg/mL (≈ 12.5 µM); in the test on Staphylococcus aureus [3], 12.5 µg/mL (≈ 49.9 µM); in the test on Klebsiella pneumoniae it was more than 200 µg/mL; with Pseudomonas aeruginosa it was more than 200 µg/mL.
On to `CCCCCCC1CC(=O)c2c(O)cc(O)cc2O1` (stereo not drawn), for which the minimum inhibitory concentration (MIC) in test [1] is 50 µg/mL (≈ 189 µM); against Enterococcus faecalis, 100 µg/mL (≈ 378 µM); with Escherichia coli [5], more than 200 µg/mL; against Escherichia coli [2], 3.13 µg/mL (≈ 11.8 µM); with Staphylococcus aureus [3], 6.25 µg/mL (≈ 23.6 µM); against Klebsiella pneumoniae, more than 200 µg/mL. The compound also had a minimal inhibitory concentration (MIC) against Pseudomonas aeruginosa of more than 200 µg/mL.
As to `O=C(N[C@H](CO)[C@H](O)c1ccc([N+](=O)[O-])cc1)C(Cl)Cl` [CHLORAMPHENICOL], the minimal inhibitory concentration (MIC) was 0.78 µg/mL (≈ 2.41 µM) against Enterococcus faecalis; 3.13 µg/mL (≈ 9.69 µM) with Staphylococcus aureus [4]; 3.13 µg/mL (≈ 9.69 µM) in the test on Escherichia coli [5]; 0.39 µg/mL (≈ 1.21 µM) in the test on Escherichia coli [2]; 1.56 µg/mL (≈ 4.83 µM) in the test with Staphylococcus aureus [3]; more than 200 µg/mL against Klebsiella pneumoniae. In addition, the MIC against Pseudomonas aeruginosa was more than 200 µg/mL.

As usually defined, the MIC is the least concentration at which growth counts as inhibited. The low end stands for a more susceptible organism, the high end for a less susceptible organism.
